Measurements reported in US6251893A, “Bicyclic piperidine and piperazine compounds having 5-HT6 receptor affinity” (NPS Allelix Corp., priority 1998, dated 2001).

What was measured:
5-HT2A receptor = 5-HT2A receptor (Homo sapiens, UniProt P28223); assay: Binding to 5-HT2A receptor (selectivity); parameters: dose or concentration left out as unconfirmed; details: selectivity versus 5-HT6; read-out: percent inhibition for the 5-HT2A receptor
5HT2C receptor = molecular target: T1, 5HT2C receptor (Homo sapiens, UniProt P28335); assay: Binding to 5HT2C receptor (selectivity); details: selectivity versus 5-HT6; read-out: percent inhibition for the 5HT2C receptor
T1 sequence (P28335 33-458): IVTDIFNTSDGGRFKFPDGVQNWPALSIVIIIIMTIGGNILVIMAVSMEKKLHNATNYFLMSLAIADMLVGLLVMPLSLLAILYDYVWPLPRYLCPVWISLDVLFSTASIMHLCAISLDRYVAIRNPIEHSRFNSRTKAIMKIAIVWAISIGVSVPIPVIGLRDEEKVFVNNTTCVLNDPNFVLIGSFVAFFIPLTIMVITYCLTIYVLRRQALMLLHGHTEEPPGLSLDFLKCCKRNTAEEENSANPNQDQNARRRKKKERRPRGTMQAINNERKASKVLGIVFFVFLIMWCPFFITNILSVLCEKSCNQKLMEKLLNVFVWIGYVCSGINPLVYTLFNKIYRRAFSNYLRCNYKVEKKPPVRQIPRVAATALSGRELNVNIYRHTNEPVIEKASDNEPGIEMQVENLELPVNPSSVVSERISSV

5-HT7 receptor = 5-HT7 receptor (Homo sapiens, UniProt P34969); assay: Binding to 5-HT7 receptor (selectivity); parameters: dose or concentration left out as unconfirmed; details: selectivity versus 5-HT6; read-out: percent inhibition for the 5-HT7 receptor
human 5HT6 receptor [1] = molecular target: T2, human 5HT6 receptor (Homo sapiens, UniProt P50406); assay: Binding affinity for the 5-HT6 receptor (3H-LSD displacement); parameters: expressed in transfected cells; details: 100 nM test compound; 3H-LSD (2 nM); 60 minute incubation at 37° C; read-out: percent inhibition of radioligand binding for the 5-HT6 receptor
Protocol: Binding Affinity for the 5-HT6 Receptor
The assay protocol generally entailed the incubation of membranes prepared from cells expressing the 5-HT6 receptor with ^3 H-LSD (2 nM). Increasing levels of the test compound were incubated with the radioligand and the membrane homogenates prepared from the recombinant cells. After a 60 minute incubation at 37° C., the incubation was terminated by vacuum filtration. The filters were washed with buffer and the filters were counted for radioactivity using liquid scintillation spectrometry. […] Concentrations ranging from 10^-11 M to 10^-5 M of the test compound were evaluated. […] Affinity for the 5-HT6 receptor is expressed as the amount (in percent) of binding of the radioligand that is inhibited in the presence of 100 nM of test compound. A greater percent inhibition indicates greater affinity for the 5-HT6 receptor.

human 5HT6 receptor [2] = molecular target: T2, human 5HT6 receptor; assay: Functional assay: reversal of serotonin-stimulated adenyl cyclase activity (cAMP) in HEK 293 cells stably expressing the human 5HT6 receptor; assay type: cell-based; parameters: cAMP functional assay in whole cells; details: 100 nM and 10 μM test compound with serotonin
Protocol: The 5HT6 receptor responds to serotonin and other agonists by increasing adenyl cyclase mediated production of cyclic AMP. Particular test compounds were assayed for their effect on adenyl cyclase activity using the procedure described below.
Compounds acting as antagonists at the 5HT6 receptor will antagonize the agonist effect of serotonin and thus, will block the serotonin-inducedincrease in adenyl cyclase activity.
HEK 293 cells stably expressing the human 5HT6 receptor were plated in 6 well plates in DMEM (Dulbecco's Modified Eagle Medium)/F12 (Nutrient Mixture F12-Ham) media with 10% FCS (fetal calf serum) and G418 (Geneticen Disulfate, 500 ug/ml), and incubated at 37° C. in a CO2 incubator. The cells were allowed to grow to about 70% confluence before use in the assay.
The culture medium of each well was removed, and the wells were washed once with serum free media. Then 2 ml of SFM+IBMX medium (SFM with 0.5 mM IBMX, 3-isobutyl-1-methylxanthine, 0.1% ascorbic acid and 10 mM pargyline) was added to each well and the wells were incubated at 37° C. for 10 min. Following incubation, the SFM+IBMX medium was removed from each well and fresh SFM+IBMX media was added to the wells separately with one of a) serotonin (1 μM final concentration); b) test compound (100 nM and 10 μM, to test for agonist activity); and c) test compound (100 nM and 10 μM) along with serotonin ([…], to test for antagonist activity). Basal adenyl cyclase activity was determined from wells with only SFM+IBMX media added.
The cells were then incubated at 37° C. for 30 minutes in a CO2 incubator. Following incubation, the media were removed from each well. The wells were washed once with 1 ml of PBS (phosphate buffered saline). Each well was then treated with 1 mL cold 95% ethanol:5 mM EDTA (2:1) at 4° C. for 1 hour. The cells from each well were then scraped and transferred into individual Eppendorf tubes. The tubes were centrifuged for 5 minutes at 4° C., and the supernatants were transferred to new Eppendorf tubes and stored at 4° C. The pellets were discarded and the supernatants were stored at 4° C. until assayed for cAMP concentration. cAMP content for each extract was determined in duplicate by EIA (enzyme-immunoassay) using the Amersham Biotrak cAMP EIA kit (Amersham RPN 225). Final results were expressed as % basal response for agonists and % reversal of serotonin response for antagonists.
The total stimulation of adenyl cyclase by serotonin (So) was determined as the difference in concentration of cAMP in the serotonin-treated cells (Cd) and the basal-treated cells (Cf).
The net stimulation (S) of basal adenyl cyclase by an agonist test compound was determined as the difference in cAMP concentration in the drug-treatedcell (C) and the basal-treated cells (Cf).
The net stimulation (Ss) of basal adenyl cyclase by serotonin in the presence of an antagonist test compound was determined as the difference in cAMP concentration in the serontonin-drug-treated cells (Cs) and the basal-treated cells (Cf).
The ability of the antagonist test compound to reverse the serotonin stimuation of adenyl cyclase activity (% reversal, % R) was determined by the formula: […]

Chain of 5-HT7 receptor (P34969 whole entry): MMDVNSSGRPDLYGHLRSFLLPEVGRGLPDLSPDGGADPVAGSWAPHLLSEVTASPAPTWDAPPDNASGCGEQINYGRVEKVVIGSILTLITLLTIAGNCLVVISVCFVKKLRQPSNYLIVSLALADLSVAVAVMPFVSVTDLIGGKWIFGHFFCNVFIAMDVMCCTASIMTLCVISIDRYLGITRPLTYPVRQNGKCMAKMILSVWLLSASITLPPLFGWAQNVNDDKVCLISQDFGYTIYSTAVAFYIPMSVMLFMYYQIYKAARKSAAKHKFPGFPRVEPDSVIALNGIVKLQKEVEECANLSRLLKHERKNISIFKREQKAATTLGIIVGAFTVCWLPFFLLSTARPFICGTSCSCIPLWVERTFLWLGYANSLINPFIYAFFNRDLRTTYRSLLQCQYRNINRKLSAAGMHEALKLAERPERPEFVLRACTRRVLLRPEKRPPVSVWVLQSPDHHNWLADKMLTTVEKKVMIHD
Chain of 5-HT2A receptor (P28223 whole entry): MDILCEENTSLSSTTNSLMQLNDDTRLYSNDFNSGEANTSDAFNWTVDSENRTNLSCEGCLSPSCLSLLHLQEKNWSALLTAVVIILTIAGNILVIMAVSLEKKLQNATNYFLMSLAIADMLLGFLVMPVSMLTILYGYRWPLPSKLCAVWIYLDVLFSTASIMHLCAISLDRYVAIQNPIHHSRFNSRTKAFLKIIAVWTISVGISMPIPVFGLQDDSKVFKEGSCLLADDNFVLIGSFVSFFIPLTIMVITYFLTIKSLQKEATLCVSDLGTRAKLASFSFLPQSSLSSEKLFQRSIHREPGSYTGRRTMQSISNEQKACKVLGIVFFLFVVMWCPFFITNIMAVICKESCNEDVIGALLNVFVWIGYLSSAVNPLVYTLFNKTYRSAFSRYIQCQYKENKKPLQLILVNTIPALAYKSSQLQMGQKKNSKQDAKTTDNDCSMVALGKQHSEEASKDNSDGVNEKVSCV
T2 sequence (P50406 whole entry): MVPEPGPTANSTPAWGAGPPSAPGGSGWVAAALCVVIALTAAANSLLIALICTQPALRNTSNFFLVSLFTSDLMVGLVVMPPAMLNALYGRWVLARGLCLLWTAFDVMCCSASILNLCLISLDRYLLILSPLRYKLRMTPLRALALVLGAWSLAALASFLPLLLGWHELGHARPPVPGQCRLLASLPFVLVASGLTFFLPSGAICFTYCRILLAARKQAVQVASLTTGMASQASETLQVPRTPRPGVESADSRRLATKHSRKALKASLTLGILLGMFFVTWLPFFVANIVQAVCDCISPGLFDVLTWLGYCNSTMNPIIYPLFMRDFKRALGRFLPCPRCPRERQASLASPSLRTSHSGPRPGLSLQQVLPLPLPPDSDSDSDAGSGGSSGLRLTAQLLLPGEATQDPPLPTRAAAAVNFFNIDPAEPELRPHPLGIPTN

Compound | inhibition (5-HT2A receptor) [%] | inhibition at 0.1 µM (5HT2C receptor) [%] | inhibition (5-HT7 receptor) [%] | inhibition at 0.1 µM (human 5HT6 receptor [1]) [%] | reversal of serotonin stimulation of adenyl cyclase (5-HT6 receptor antagonism) (human 5HT6 receptor [2])
O=S(=O)(c1cccc2ccccc12)n1cc(N2CCN3CCCC3C2)c2ccccc21 (racemic) [Example 6b, 3-[(6-R,S)-1,4-Diaza[4.3. 0]bicyclonon-4-yl]-1-(1-naphthalenesulfonyl)indole] | < 20 | < 20 | < 20 | > 80 | able to reverse the serotonin stimulation of adenyl cyclase
O=S(=O)(c1ccccc1)n1cc(N2CCN3CCCC3C2)c2ccccc21 (racemic) [Example 6j, 3-[(6-R,S)-1,4-Diaza[4.3.0]bicyclonon-4-yl]-1-(phenylsulfonyl)indole] | < 20 | < 20 | < 20 | > 80 | able to reverse the serotonin stimulation of adenyl cyclase
O=S(=O)(c1ccccc1)n1cc(C2=CCN3CCCC3C2)c2cc(F)ccc21 (racemic) [Example 6x, 5-Fluoro-3-[(8a-R,S)-1,2,3,5,8,8a-hexahydro-7-indolizinyl]-1-phenylsulfonylindole] | < 20 | < 20 | < 20 | > 80 | able to reverse the serotonin stimulation of adenyl cyclase
O=S(=O)(c1cccc2ccccc12)n1cc(C2=CCN3CCCC3C2)c2cc(F)ccc21 (racemic) [Example 6y, 5-Fluoro-3-[(8a-R,S)-1,2,3,5,8,8a-hexahydro-7-indolizinyl]-1-(1-naphthalenesulfonyl)indole] | < 20 | < 20 | < 20 | > 80 | able to reverse the serotonin stimulation of adenyl cyclase
O=S(=O)(c1ccc2ccccc2c1)n1cc(C2CCN3CCCC3C2)c2cc(F)ccc21 (single isomer, unassigned; isomer i) [Example 10a, 5-Fluoro-3-[(7R or 7S)(8a-R,S)-octahydrohydro-7-indolizinyl]-1-(2-naphthalenesulfonyl)indole,Isomer I] | – | – | – | > 80 | able to reverse the serotonin stimulation of adenyl cyclase
O=S(=O)(c1ccccc1)n1cc(C2CCN3CCCC3C2)c2cc(F)ccc21 (single isomer, unassigned; isomer i) [Example 10c, 5-Fluoro-3-[(7R or 7S)(8a-R,S)-octahydrohydro-7-indolizinyl]-1-phenylsulfonylindole, Isomer I] | – | – | – | > 80 | able to reverse the serotonin stimulation of adenyl cyclase
O=S(=O)(c1cccc2ccccc12)n1cc(C2CCN3CCCC3C2)c2cc(F)ccc21 (single isomer, unassigned; isomer i) [Example 10e, 5-Fluoro-3-[(7R or 7S)(8a-R,S)-octahydrohydro-7-indolizinyl]-1-(1-napthalenesulfonyl)indole, Isomer I] | – | – | – | > 80 | able to reverse the serotonin stimulation of adenyl cyclase
O=S(=O)(c1ccc2ccccc2c1)n1cc(C2CCN3CCCC3C2)c2cc(F)ccc21 (single isomer, unassigned; isomer ii) [Example 10b, 5-Fluoro-3-[(7R or 7S)(8a-R,S)-octahydrohydro-7-indolizinyl]-1-(2-naphthalenesulfonyl)indole, Isomer II] | < 20 | < 20 | < 20 | – | able to reverse the serotonin stimulation of adenyl cyclase
O=S(=O)(c1ccccc1)n1cc(C2CCN3CCCC3C2)c2cc(F)ccc21 (single isomer, unassigned; isomer ii) [Example 10d, 5-Fluoro-3-[(7R or 7S)(8a-R,S)-octahydrohydro-7-indolizinyl]-1-phenylsulfonylindole, Isomer II] | – | – | – | – | able to reverse the serotonin stimulation of adenyl cyclase
O=S(=O)(c1cccc2ccccc12)n1cc(C2CCN3CCCC3C2)c2cc(F)ccc21 (single isomer, unassigned; isomer ii) [Example 10f, 5-Fluoro-3-[(7R or 7S)(8a-R,S)-octahydrohydro-7-indolizinyl]-1-(1-naphthalenesulfonyl)indole,Isomer II] | < 20 | < 20 | < 20 | – | able to reverse the serotonin stimulation of adenyl cyclase
